# Measured values: article PMC1664607 (PLoS Medicine, 2006)
# Read-outs that look alike come from different tables or passages of the source.
# Legend:
# [1] = biological target: T1, CYP2A6 (Homo sapiens, UniProt P11509); assay: Coumarin 7-hydroxylation in human liver microsomes; format: in vitro ADME; details: 2 μM coumarin
# T1 construct: Standard incubation mixtures of 0.5 ml contained microsomal protein (0.1–0.5 mg); from tissue; host or cells: pooled human liver microsomes (ten donors)
# T1 sequence (P11509 1-494): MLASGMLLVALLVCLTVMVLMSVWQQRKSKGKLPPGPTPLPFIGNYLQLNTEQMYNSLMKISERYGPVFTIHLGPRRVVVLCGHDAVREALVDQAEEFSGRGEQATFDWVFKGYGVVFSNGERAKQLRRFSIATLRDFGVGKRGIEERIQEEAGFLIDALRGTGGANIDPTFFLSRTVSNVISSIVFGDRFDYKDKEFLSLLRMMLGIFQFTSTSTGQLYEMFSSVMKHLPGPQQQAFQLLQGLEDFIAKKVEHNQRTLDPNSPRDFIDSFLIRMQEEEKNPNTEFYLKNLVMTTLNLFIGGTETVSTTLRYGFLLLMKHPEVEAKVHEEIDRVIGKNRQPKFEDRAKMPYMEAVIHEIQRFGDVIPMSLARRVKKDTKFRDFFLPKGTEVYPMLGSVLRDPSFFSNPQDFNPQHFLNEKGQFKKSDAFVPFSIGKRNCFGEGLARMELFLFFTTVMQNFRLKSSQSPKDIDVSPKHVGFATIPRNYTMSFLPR
# [2] = system: M. tuberculosis Kurono; assay: Therapeutic efficacy in an experimental mouse model of chronic TB; format: in vivo, ICR mice; details: for Log of Viable Counts/Lung: mean ± S.D., n = 5
# [3] = system: M. tuberculosis ATCC 35822 (H37Rv-H-R); assay: microbe, parasite or virus in culture; format: cell-based; details: Mycobacterium tuberculosis, 336 h
# [4] = system: mycolic acid synthesis in M. bovis BCG; assay: microbe, parasite or virus in culture; format: cell-based; details: for IC50: Mycobacterium tuberculosis variant bovis BCG, BCG
# [5] = biological target: T2, CYP2B6 (Homo sapiens, UniProt P20813); details: […] 7-benzyloxyresorufin
# T2 sequence (P20813 1-491): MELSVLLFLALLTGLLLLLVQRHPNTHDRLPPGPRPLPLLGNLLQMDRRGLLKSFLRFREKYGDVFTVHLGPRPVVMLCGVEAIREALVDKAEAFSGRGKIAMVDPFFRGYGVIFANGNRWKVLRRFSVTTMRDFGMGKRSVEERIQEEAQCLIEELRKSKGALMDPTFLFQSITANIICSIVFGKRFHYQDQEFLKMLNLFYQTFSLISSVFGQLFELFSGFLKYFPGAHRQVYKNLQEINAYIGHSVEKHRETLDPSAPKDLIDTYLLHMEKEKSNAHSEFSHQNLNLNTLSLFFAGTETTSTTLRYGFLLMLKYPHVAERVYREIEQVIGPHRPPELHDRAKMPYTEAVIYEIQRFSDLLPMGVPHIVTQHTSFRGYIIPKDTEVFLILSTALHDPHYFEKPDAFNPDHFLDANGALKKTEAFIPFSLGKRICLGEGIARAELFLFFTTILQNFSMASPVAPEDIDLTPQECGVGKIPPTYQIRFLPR
# [6] = system: M. tuberculosis ATCC 35820 (H37Rv-S-R); assay: microbe, parasite or virus in culture; format: cell-based; details: Mycobacterium tuberculosis, 336 h
# [7] = system: M. tuberculosis ATCC 35838 (H37Rv-R-R); assay: microbe, parasite or virus in culture; format: cell-based; details: Mycobacterium tuberculosis, 336 h
# [8] = system: M. tuberculosis ATCC 35812 (Kurono); assay: Susceptibility testing (agar dilution MIC); format: cell-based; details: Mycobacterium tuberculosis, ATCC35812, 336 h; 7H11 agar, 37 °C, 14 d; read-out: MIC
# [9] = system: clinically isolated M. tuberculosis; assay: microbe, parasite or virus in culture; format: cell-based; details: for MIC90: Mycobacterium tuberculosis, read-out: MIC90
# [10] = system: clinically isolated M. tuberculosis (27 test strains); assay: Checkerboard method, combination with existing TB drugs; format: cell-based; details: antagonism = FIC index >4.0
# Excerpt: In addition, the efficacy of OPC-67683 in combination with currently used anti-TB drugs RFP, INH, EB, and SM was examined in vitro using the checkerboard method.
# [11] = system: Salmonella tyiphimurium TA98, TA100, TA1535, and TA1537, and Escherichia coli WP2 uvrA; assay: Bacterial reverse mutation (BRM) test, overall result; format: cell-based; details: absence and presence of S9 mix, OECD Guideline 471
# Procedure: The BRM test was performed in accordance with OECD Guideline 471 using Salmonella tyiphimurium TA98, TA100, TA1535, and TA1537, and Escherichia coli WP2 uvrA [11]. Each bacterial strain was pre-cultured at 37 °C for 18 h using a nutrient broth (Nissui Pharmaceutical; http://www.nissui-pharm.co.jp/index_e.html). After adjustment to 2.4 at OD660 nm, each bacterial suspension was added to a test tube containing the designated compound in the absence or presence of rat liver microsome (S9) mix. After a 20-min incubation at 37 °C, top agar was added to each test tube and the contents were poured into minimum essential medium (Oriental Yeast; http://www.oyc.co.jp/e/index.htm). The number of revertants was counted 48 h after incubation at 37 °C.
# [12] = Plasma levels in an experimental mouse model of TB; details: in vivo, po
# [13] = system: intracellular M. tuberculosis H37Rv in THP-1 cells; assay: Activity against intracellular mycobacteria, 4-h pulsed exposure; format: cell-based, M. tuberculosis; human THP-1 cells; details: further 68-h culture
# [14] = biological target: T3, CYP2C19 (Homo sapiens, UniProt P33261); assay: S-mephenytoin 4′ -hydroxylation in human liver microsomes; format: in vitro ADME; details: 100 μM S-mephenytoin
# T3 construct: Standard incubation mixtures of 0.5 ml contained microsomal protein (0.1–0.5 mg); from tissue; host or cells: pooled human liver microsomes (ten donors)
# T3 sequence (P33261 whole entry): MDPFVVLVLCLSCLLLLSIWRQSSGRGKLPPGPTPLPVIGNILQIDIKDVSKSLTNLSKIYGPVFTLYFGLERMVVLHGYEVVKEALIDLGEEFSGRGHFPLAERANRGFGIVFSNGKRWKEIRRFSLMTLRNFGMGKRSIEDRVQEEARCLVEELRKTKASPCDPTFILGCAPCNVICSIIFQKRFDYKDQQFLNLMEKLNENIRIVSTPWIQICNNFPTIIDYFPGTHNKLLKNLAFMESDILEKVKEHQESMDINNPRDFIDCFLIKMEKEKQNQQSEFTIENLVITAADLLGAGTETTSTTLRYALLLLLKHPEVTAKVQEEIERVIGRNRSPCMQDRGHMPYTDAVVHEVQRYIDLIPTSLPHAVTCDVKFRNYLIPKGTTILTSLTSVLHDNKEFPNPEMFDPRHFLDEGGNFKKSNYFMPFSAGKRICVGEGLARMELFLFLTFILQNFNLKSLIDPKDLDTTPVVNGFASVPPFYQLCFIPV
structure (smiles),measurement,setting,value
"C[C@]1(COc2ccc(N3CCC(Oc4ccc(OC(F)(F)F)cc4)CC3)cc2)Cn2cc([N+](=O)[O-])nc2O1 [OPC-67683, (R)-2-methyl-6-nitro-2-(4-[4-(4-trifluoromethoxyphenoxy)piperidin-1-yl]phenoxymethyl}-2,3-dihydroimidazo[2,1-b]oxazole]",Percent of Control,[1]; 10 μM,103.1% of Control
same,Percent of Control,[1]; 30 μM,97.8% of Control
same,Log of Viable Counts/Lung,[2]; 0.156 mg/kg once daily for 28 d (4 weeks),"6.506 ± 0.294^a:NS, b:NS"
same,Log of Viable Counts/Lung,[2]; 0.313 mg/kg once daily for 28 d (4 weeks),"5.959 ± 0.436^a:**, b:**"
same,Log of Viable Counts/Lung,[2]; 0.625 mg/kg once daily for 28 d (4 weeks),"5.457 ± 0.245^a:**, b:**"
same,Log of Viable Counts/Lung,[2]; 1.25 mg/kg once daily for 28 d (4 weeks),"4.867 ± 0.400^a:**, b:**"
same,Log of Viable Counts/Lung,[2]; 2.5 mg/kg once daily for 28 d (4 weeks),"4.753 ± 0.297^a:**, b:**"
same,Log of Viable Counts/Lung,[2]; 5 mg/kg once daily for 28 d (4 weeks),"4.272 ± 0.463^a:**, b:**"
same,Log of Viable Counts/Lung,[2]; 10 mg/kg once daily for 28 d (4 weeks),"3.943 ± 0.465^a:**, b:**"
same,Log of Viable Counts/Lung,[2]; 20 mg/kg once daily for 28 d (4 weeks),"3.495 ± 0.522^a:**, b:**"
same,Log of Viable Counts/Lung,[2]; 40 mg/kg once daily for 28 d (4 weeks),"2.791 ± 0.671^a:**, b:**"
same,Dose that could produce a CFU reduction of at least 95%,"[2]; lung, once daily for 28 d",0.625 mg/kg
same,MIC,[3],0.012 mg/L
same,"IC50, α-Mycolic acid","[4]; 14C acetic acid incorporation, 60 min, TLC n = 3",>0.25 mg/L
same,IC50,"[4]; 1 h, read-out: IC50, Fatty acid",> 0.25 mg/L
same,IC50,"[4]; 1 h, read-out: IC50, Keto-mycolic acid",0.021 mg/L
same,IC50,"[4]; 1 h, read-out: IC50, Methoxy-mycolic acid",0.036 mg/L
same,IC50,"[4]; 1 h, read-out: IC50, α-Mycolic acid",> 0.25 mg/L
same,IC50,"[4]; read-out: IC50 values, synthesis of methoxy- and keto-mycolic acid",0.021 to 0.036 mg/L
same,Percent of Control,[5]; 10 μM,118.3% of Control
same,Percent of Control,[5]; 30 μM,112.8% of Control
same,Percent of Control,[5]; 100 μM,122.3% of Control
same,MIC,[6],0.012 mg/L
same,MIC,[7],0.006 mg/L
same,MIC,[8],0.012 mg/L
same,MIC90 of OPC-67683 times lower than that of EB,[9],~303 times
same,MIC90 of OPC-67683 times lower than that of INH,[9],eight
same,MIC90 of OPC-67683 times lower than that of RFP,[9],about 24 times
same,MIC90 of OPC-67683 times lower than that of SM,[9],~244 times
same,MIC90,[9]; EB-susceptible M. tuberculosis (56 strains),0.0121 mg/L
same,MIC90,[9]; INH-susceptible M. tuberculosis (31 strains),0.0119 mg/L
same,MIC90,[9]; RFP-susceptible M. tuberculosis (31 strains),0.0125 mg/L
same,MIC90,[9]; SM-susceptible M. tuberculosis (49 strains),0.012 mg/L
same,MIC90,[9],0.012 mg/L
same,"Antagonistic activity in combination with RFP, INH, EB, and SM",[10],no antagonistic activity
same,Mutagenic potential in the BRM test,[11],did not show mutagenicity
same,concentration at 1 h,[12],0.133 ± 0.03 µg/mL
same,concentration at 2 h,[12],0.193 ± 0.04 µg/mL
same,concentration at 4 h,[12],0.22 ± 0.02 µg/mL
same,concentration at 6 h,[12],0.297 ± 0.083 µg/mL
same,AUC(0-t),[12]; 2.5 mg/kg,4.13 µg·h/mL
same,Cmax,[12]; 2.5 mg/kg,0.297 µg/mL
same,Tmax,[12]; 2.5 mg/kg,6 h
same,concentration at 12 h,[12]; 2.5 mg/kg,0.166 ± 0.049 µg/mL
same,concentration at 24 h,[12]; 2.5 mg/kg,0.049 ± 0.012 µg/mL
same,half-life,[12]; 2.5 mg/kg,7.6 h
same,Activity against intracellular M. tuberculosis H37Rv,[13],highly active
same,Percent of Control,[14]; 10 μM,113.3% of Control
same,Percent of Control,[14]; 100 μM,107.6% of Control
